Measurements published in patent publication US9505728B2, “Triazolone compounds and uses thereof” (INCEPTION 2, INC., priority 2012, dated 2016).

Experiments:
PPAR gamma = molecular target: T1, PPAR gamma (Homo sapiens, UniProt P37231); experiment: Target selectivity counterscreen, PPAR γ reporter assay; type: cell-based; details: receptor agonist at ~EC80
T1 construct: host or cells: engineered reporter cells of the kit
T1 sequence (P37231 1-505): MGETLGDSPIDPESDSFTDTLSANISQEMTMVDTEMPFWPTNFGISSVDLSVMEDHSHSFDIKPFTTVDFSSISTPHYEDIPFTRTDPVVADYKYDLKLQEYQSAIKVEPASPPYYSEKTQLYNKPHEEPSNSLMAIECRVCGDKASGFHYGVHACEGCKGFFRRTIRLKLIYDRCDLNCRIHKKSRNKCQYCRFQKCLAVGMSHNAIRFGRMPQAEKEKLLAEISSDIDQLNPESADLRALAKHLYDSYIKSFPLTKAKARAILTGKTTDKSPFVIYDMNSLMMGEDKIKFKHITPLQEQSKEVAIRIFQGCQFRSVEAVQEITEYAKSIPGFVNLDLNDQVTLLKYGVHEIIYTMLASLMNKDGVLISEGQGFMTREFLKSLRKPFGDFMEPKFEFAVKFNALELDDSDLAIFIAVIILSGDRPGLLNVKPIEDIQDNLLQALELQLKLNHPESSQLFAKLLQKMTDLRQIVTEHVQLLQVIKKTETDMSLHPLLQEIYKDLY
Method: (§1) Target Selectivity Assays
(§2) To determine species selectivity, a Mouse PPARα Reporter Assay System was used (Indigo Biosciences, Cat. #M00111). Activity of test compounds to antagonize or agonize other isoforms of human PPAR, for example β/δ and γ, were assessed using the corresponding kits from Indigo Biosciences (Cat. #IB00121 and #IB00101, respectively). In addition to PPAR activity, compounds were also screened for activity against other nuclear hormone receptors including Estrogen Receptor β, Glucocorticoid Receptor and Thyroid Receptor β using commercially available kits (Indigo Biosciences, Cat. #IB00411, IB00201 and IB01101, respectively). Each assay system from Indigo Biosciences uses technology analogous to the human PPARα kit, with the variance being that the cells used for each assay were engineered to over-express the receptor of interest. In addition, the appropriate receptor agonist (included with each kit) was used at ˜EC80 for assays in which antagonist potency was being assessed.

PPAR beta/delta = molecular target: T2, PPAR beta/delta (Homo sapiens, UniProt Q03181); experiment: Target selectivity counterscreen, PPAR β/δ reporter assay; type: cell-based; details: receptor agonist at ~EC80
T2 construct: host or cells: engineered reporter cells of the kit
T2 sequence (Q03181 1-441): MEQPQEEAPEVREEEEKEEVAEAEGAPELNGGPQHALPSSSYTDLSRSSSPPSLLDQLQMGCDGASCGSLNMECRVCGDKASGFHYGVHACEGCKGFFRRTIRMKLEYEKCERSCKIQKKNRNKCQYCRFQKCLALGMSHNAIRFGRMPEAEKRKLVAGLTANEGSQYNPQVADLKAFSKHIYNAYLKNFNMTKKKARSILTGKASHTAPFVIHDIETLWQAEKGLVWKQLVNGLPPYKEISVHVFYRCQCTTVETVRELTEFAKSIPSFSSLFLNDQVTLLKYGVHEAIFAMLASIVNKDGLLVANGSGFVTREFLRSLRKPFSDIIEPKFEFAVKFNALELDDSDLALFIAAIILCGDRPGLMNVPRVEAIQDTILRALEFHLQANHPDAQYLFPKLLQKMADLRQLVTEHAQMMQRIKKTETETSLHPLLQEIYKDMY
Method: as §1, §2

IC50 (PPAR gamma): 2900 nM | IC50 (PPAR beta/delta): 2600 nM
Structure (SMILES): CCn1c(CCCc2ccc(-c3ccc(NS(=O)(=O)c4ccccc4)cn3)cc2)nn(Cc2ccc(C(C)(C)C)cc2)c1=O [Example 10, N-(6-(4-(3-(1-(4-(tert-Butyl)benzyl)-4-ethyl-5-oxo-4,5-dihydro-1H-1,2,4-triazol-3-yl)propyl)phenyl)pyridin-3-yl)benzenesulfonamide]
